Test results reported in patent US12036312B2, “Non-aqueous topical compositions comprising a halogenated salicylanilide” (priority 2016, dated 2024).
In brackets after ≈: the same amount, converted by molar mass.

Test system: S. aureus
Assay: MIC assay according to CLSI criteria, Example 2, S. aureus strains
Type: cell-based, Staphylococcus aureus
Conditions: Staphylococcus aureus
Description: Chosen for its relevance regarding bacterial skin infections, the methicillin-resistant S. aureus (MRSA) 01 strain was used as the primary test microorganism. This strain is a community-acquired MRSA clinical isolate of USA 300 type, from a skin abscess.
Two-hundred-four other MRSA and methicillin-sensitive S. aureus strains, and 4 Streptococcus pyogenes strains, were also included in the study. These covered fusidic acid- and mupirocin-resistant strains, these two types of resistance being of clinical relevance.
Strains were conserved in Luria Bertani (LB) Broth (S. aureus) or Brain Heart Infusion (BHI) (S. pyogenes) supplemented with glycerol 15% (v/v) at −80° C., and reactivated by isolation on LB (S. aureus) or BHI (S. pyogenes) agar plates. Strains were cultivated in Mueller Hinton (MH) Broth-cation adjusted (S. aureus) or BHI (S. pyogenes). All strains were cultivated aerobically (microaerobically for S. pyogenes strains) at 37° C.
Bacterial cultures were stopped in their exponential growth phase and plates were inoculated with the approximate concentration of 5×10^5 cells per well. Plates were incubated at 37° C. for 18 hours (S. aureus) or 24 hours (S. pyogenes). Optical density at a wavelength of 600 nm was measured at the end of the incubation time.

CN[C@H](CC(C)C)C(=O)N[C@H]1C(=O)N[C@@H](CC(N)=O)C(=O)N[C@H]2C(=O)N[C@H]3C(=O)N[C@H](C(=O)N[C@H](C(=O)O)c4cc(O)cc(O)c4-c4cc3ccc4O)[C@H](O)c3ccc(c(Cl)c3)Oc3cc2cc(c3O[C@@H]2O[C@H](CO)[C@@H](O)[C@H](O)[C@H]2O[C@H]2C[C@](C)(N)[C@H](O)[C@H](C)O2)Oc2ccc(cc2Cl)[C@H]1O [Vancomycin, vancomycin]
MIC (MRSA, strain MRSA 102): 2 µg/mL (≈ 1.38 µM) | MIC (MRSA, strain MRSA 103): 1 µg/mL (≈ 0.69 µM) | MIC (MRSA, strain MRSA 104): 1 µg/mL (≈ 0.69 µM) | MIC (MRSA, strain MRSA 105): 1 µg/mL (≈ 0.69 µM) | MIC (MRSA, strain MRSA 106): 1 µg/mL (≈ 0.69 µM) | MIC (MRSA, strain MRSA 107): 2 µg/mL (≈ 1.38 µM) | MIC (MRSA, strain MRSA 108): 1 µg/mL (≈ 0.69 µM) | MIC (MRSA, strain MRSA 109): 1 µg/mL (≈ 0.69 µM) | MIC (MRSA, strain MRSA 110): 1 µg/mL (≈ 0.69 µM) | MIC (MRSA, strain MRSA 111): 1 µg/mL (≈ 0.69 µM) | MIC (MRSA, strain MRSA 112): 1 µg/mL (≈ 0.69 µM) | MIC (MRSA, strain MRSA 113): 1 µg/mL (≈ 0.69 µM) | MIC (MSSA, strain MSSA 01): 1 µg/mL (≈ 0.69 µM) | MIC (MSSA, strain MSSA 02): 1 µg/mL (≈ 0.69 µM) | MIC (NEWMAN, strain Newman): 2 µg/mL (≈ 1.38 µM) | MIC (strain 9-1862936): 1 µg/mL (≈ 0.69 µM) | MIC (strain 9-2625962): 1 µg/mL (≈ 0.69 µM) | MIC (strain 9-2642158): 1 µg/mL (≈ 0.69 µM) | MIC (strain 9-2955245): 1 µg/mL (≈ 0.69 µM) | MIC (strain 9-26422166): 1 µg/mL (≈ 0.69 µM) | MIC (strain 000040C): 1 µg/mL (≈ 0.69 µM) | MIC (strain 000041C): 1 µg/mL (≈ 0.69 µM) | MIC (strain 000274T): 1 µg/mL (≈ 0.69 µM) | MIC (strain 114660U): 1 µg/mL (≈ 0.69 µM) | MIC (strain 115015T): 2 µg/mL (≈ 1.38 µM) | MIC (strain 115242C): 1 µg/mL (≈ 0.69 µM) | MIC (strain 115263C): 2 µg/mL (≈ 1.38 µM) | MIC (strain 115268C): 1 µg/mL (≈ 0.69 µM) | MIC (strain 115273C): 1 µg/mL (≈ 0.69 µM) | MIC (strain 115295C): 1 µg/mL (≈ 0.69 µM) | MIC (strain 115303C): 1 µg/mL (≈ 0.69 µM) | MIC (strain 115370U): 1 µg/mL (≈ 0.69 µM) | MIC (strain 115427C): 1 µg/mL (≈ 0.69 µM) | MIC (strain 115445C): 1 µg/mL (≈ 0.69 µM) | MIC (strain 115561C): 1 µg/mL (≈ 0.69 µM) | MIC (strain 115584D): 2 µg/mL (≈ 1.38 µM) | MIC (strain 115628T): 2 µg/mL (≈ 1.38 µM) | MIC (strain 115690C): 2 µg/mL (≈ 1.38 µM) | MIC (strain 115691T): 1 µg/mL (≈ 0.69 µM) | MIC (strain 115740E): 1 µg/mL (≈ 0.69 µM) | MIC (strain 115810E): 1 µg/mL (≈ 0.69 µM) | MIC (strain 115903T): 1 µg/mL (≈ 0.69 µM) | MIC (strain 116122T): 1 µg/mL (≈ 0.69 µM) | MIC (strain E5-1029252): 1 µg/mL (≈ 0.69 µM) | MIC (strain E5-1029558): 1 µg/mL (≈ 0.69 µM) | MIC (strain E5-1030440): 1 µg/mL (≈ 0.69 µM) | MIC (strain E5-1030469): 2 µg/mL (≈ 1.38 µM) | MIC (strain E5-1030472): 1 µg/mL (≈ 0.69 µM) | MIC (strain E5-1030482): 1 µg/mL (≈ 0.69 µM) | MIC (strain E5-1033076 (first listing, r204)): 1 µg/mL (≈ 0.69 µM) | MIC (strain E5-1033076 (second listing, r205)): 1 µg/mL (≈ 0.69 µM) | MIC (strain E5-1033088): 1 µg/mL (≈ 0.69 µM) | MIC (strain E5-1033091): 1 µg/mL (≈ 0.69 µM) | MIC (strain E5-1035277): 1 µg/mL (≈ 0.69 µM) | MIC (strain E5-1035284): 1 µg/mL (≈ 0.69 µM) | MIC (strain E5-1035775): 1 µg/mL (≈ 0.69 µM) | MIC (strain E5-1035779): 1 µg/mL (≈ 0.69 µM) | MIC (strain E5-1037958): 1 µg/mL (≈ 0.69 µM) | MIC (strain E5-1037971): 1 µg/mL (≈ 0.69 µM) | MIC (strain E5-1038279): 1 µg/mL (≈ 0.69 µM) | MIC (strain E5-1038286): 1 µg/mL (≈ 0.69 µM) | MIC (strain E5-1038294): 1 µg/mL (≈ 0.69 µM) | MIC (strain E5-1039684): 1 µg/mL (≈ 0.69 µM) | MIC (strain E5-1039697): 1 µg/mL (≈ 0.69 µM) | MIC (strain E5-1041977): 2 µg/mL (≈ 1.38 µM) | MIC (strain E5-1041979): 1 µg/mL (≈ 0.69 µM) | MIC (strain E5-1041980): 1 µg/mL (≈ 0.69 µM) | MIC (strain E5-1041987): 1 µg/mL (≈ 0.69 µM) | MIC (strain E5-1043184): 1 µg/mL (≈ 0.69 µM) | MIC (strain E5-1043668): 1 µg/mL (≈ 0.69 µM) | MIC (strain E5-1045179): 1 µg/mL (≈ 0.69 µM) | MIC (strain E5-1046019): 1 µg/mL (≈ 0.69 µM) | MIC (strain E5-1046020): 1 µg/mL (≈ 0.69 µM) | MIC (strain E5-1046039): 1 µg/mL (≈ 0.69 µM) | MIC (strain E5-1046070): 1 µg/mL (≈ 0.69 µM) | MIC (strain E5-1046074): 1 µg/mL (≈ 0.69 µM) | MIC (strain E5-1046085): 2 µg/mL (≈ 1.38 µM) | MIC (strain E5-1046096): 1 µg/mL (≈ 0.69 µM) | MIC (strain E5-1046296): 1 µg/mL (≈ 0.69 µM) | MIC (strain E5-1046297): 1 µg/mL (≈ 0.69 µM) | MIC (strain E5-1046298): 1 µg/mL (≈ 0.69 µM) | MIC (strain E5-1046723): 2 µg/mL (≈ 1.38 µM) | MIC (strain E5-1047585): 1 µg/mL (≈ 0.69 µM) | MIC (strain E5-1047606): 1 µg/mL (≈ 0.69 µM) | MIC (strain E5-1047924): 1 µg/mL (≈ 0.69 µM) | MIC (strain E5-1048204): 2 µg/mL (≈ 1.38 µM) | MIC (strain E5-1048428): 1 µg/mL (≈ 0.69 µM) | MIC (strain E5-1048654): 1 µg/mL (≈ 0.69 µM) | MIC (strain E5-1048670): 2 µg/mL (≈ 1.38 µM) | MIC (strain EEFIC 01): 1 µg/mL (≈ 0.69 µM) | MIC (strain EEFIC 02): 1 µg/mL (≈ 0.69 µM) | MIC (strain K000772): 1 µg/mL (≈ 0.69 µM) | MIC (strain K000796): 1 µg/mL (≈ 0.69 µM) | MIC (strain K000863): 1 µg/mL (≈ 0.69 µM) | MIC (strain K000864): 1 µg/mL (≈ 0.69 µM) | MIC (strain K000866): 1 µg/mL (≈ 0.69 µM) | MIC (strain K115498): 2 µg/mL (≈ 1.38 µM) | MIC (strain K115688): 2 µg/mL (≈ 1.38 µM) | MIC (strain K115689): 2 µg/mL (≈ 1.38 µM) | MIC (strain R000019): 2 µg/mL (≈ 1.38 µM) | MIC (strain R000020): 1 µg/mL (≈ 0.69 µM) | MIC (strain R000024): 1 µg/mL (≈ 0.69 µM) | MIC (strain U115579): 1 µg/mL (≈ 0.69 µM)
